In ChEMBL document CHEMBL5126506, “Coumarin-benzimidazole hybrids: A review of developments in medicinal chemistry” (Eur J Med Chem, 2022):
Converted amounts (≈) assume the structure as drawn.

Assays:
[1] = Anticancer activity against human KATO III stomach cancer cell line assessed as cell growth inhibition measured after 3 days by CCK-8 assay; assay type: functional; settings: 72 h, time 3 day
PANC-1 = experiment: Anticancer activity against human PANC-1 cells assessed as cell growth inhibition measured after 3 days by CCK-8 assay; assay type: functional; settings: PANC-1, 72 h, time 3 day
SK-OV-3 = experiment: Anticancer activity against human SK-OV-3 cells assessed as cell growth inhibition measured after 3 days by CCK-8 assay; assay type: functional; settings: SK-OV-3, 72 h, time 3 day
K562 = experiment: Anticancer activity against human K562 cells assessed as cell growth inhibition measured after 3 days by CCK-8 assay; assay type: functional; settings: K562, 72 h, time 3 day
Rattus norvegicus [2] = experiment: Antiinflammatory activity in formalin induced Wistar rat paw oedema model assessed as inhibition of paw oedema administered up to 6 hrs by plethysmograph analysis; assay type: functional, organism-based; set-up: scale not given: the % may be the effect or the level left
MCF7 = experiment: Anticancer activity against human MCF7 cells assessed as cell growth inhibition measured after 48 hrs by sulforhodamine B staining based analysis; assay type: functional
NCI-H460 [3] = experiment: Anticancer activity against human NCI-H460 cells assessed as cell growth inhibition measured after 48 hrs by sulforhodamine B staining based analysis; assay type: functional
SF-268 = experiment: Anticancer activity against human SF-268 cells assessed as cell growth inhibition measured after 48 hrs by sulforhodamine B staining based analysis; assay type: functional
[4] = Cytotoxicity against human WI-38 cells assessed as cell growth inhibition measured after 48 hrs by sulforhodamine B staining based analysis; assay type: toxicity
Salmonella typhi = experiment: Antibacterial activity against Salmonella typhi ATCC 11778 assessed as bacterial growth inhibition at 50 ug/ml incubated for 24 hrs relative to control; assay type: functional, Salmonella enterica subsp. enterica serovar Typhi; set-up: scale not given: the % may be the effect or the level left; settings: dose 50 µg/ml
Shigella dysenteriae = experiment: Antibacterial activity against Shigella dysenteriae ATCC 49345 assessed as bacterial growth inhibition at 50 ug/ml incubated for 24 hrs relative to control; assay type: functional; set-up: scale not given: the % may be the effect or the level left; settings: dose 50 µg/ml
Staphylococcus aureus = experiment: Antibacterial activity against Staphylococcus aureus assessed as zone of inhibition at 1000 ug/ml measured after 24 hrs by cup plate method; assay type: functional; settings: read-out: DIZ
Bacillus subtilis = experiment: Antibacterial activity against Bacillus subtilis assessed as zone of inhibition at 1000 ug/ml measured after 24 hrs by cup plate method; assay type: functional; settings: read-out: DIZ
Pseudomonas aeruginosa = experiment: Antibacterial activity against Pseudomonas aeruginosa assessed as zone of inhibition at 1000 ug/ml measured after 24 hrs by cup plate method; assay type: functional; settings: read-out: DIZ
Escherichia coli = experiment: Antibacterial activity against Escherichia coli assessed as zone of inhibition at 1000 ug/ml measured after 24 hrs by cup plate method; assay type: functional; settings: read-out: DIZ
Aspergillus niger = experiment: Antifungal activity against Aspergillus niger assessed as zone of inhibition at 1000 ug/ml measured after 24 hrs by cup plate method; assay type: functional; settings: read-out: DIZ
Aspergillus flavus = experiment: Antifungal activity against Aspergillus flavus assessed as zone of inhibition at 1000 ug/ml measured after 24 hrs by cup plate method; assay type: functional; settings: read-out: DIZ
Aspergillus terreus = experiment: Antifungal activity against Aspergillus terreus assessed as zone of inhibition at 1000 ug/ml measured after 24 hrs by cup plate method; assay type: functional; settings: read-out: DIZ
Rattus norvegicus [5] = experiment: Antiinflammatory activity in formalin induced fasted albino rat paw oedema model assessed as inhibition of paw oedema at 100 mg/kg, po measured after 4 hrs by plethysmograph analysis relative to control; assay type: functional; set-up: scale not given: the % may be the effect or the level left
Hepatitis C virus = experiment: Antiviral activity against HCV GT-1b infected in human Huh-5-2 cells carrying HCV subgenomic replicons assessed as inhibition of viral replication by quantitative RT-PCR assay; assay type: functional, organism-based, Hepacivirus hominis; settings: subtype 1b
Carbonic anhydrase 1 = Carbonic anhydrase 1 (Homo sapiens, UniProt P00915); experiment: Inhibition of human carbonic anhydrase-1 by stopped flow CO2 hydrase assay
Sequence of Carbonic anhydrase 1 (P00915 whole entry): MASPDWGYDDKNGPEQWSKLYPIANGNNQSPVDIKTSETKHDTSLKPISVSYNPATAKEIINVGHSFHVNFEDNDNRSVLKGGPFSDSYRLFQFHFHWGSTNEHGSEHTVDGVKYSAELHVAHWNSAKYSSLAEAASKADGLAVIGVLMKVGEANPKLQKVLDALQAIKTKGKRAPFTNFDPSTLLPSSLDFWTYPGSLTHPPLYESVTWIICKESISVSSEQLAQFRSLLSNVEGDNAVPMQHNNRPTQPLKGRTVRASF

Carbonic anhydrase 2 = Carbonic anhydrase 2 (Homo sapiens, UniProt P00918); experiment: Inhibition of human carbonic anhydrase-2 by stopped flow CO2 hydrase assay
SNU1 = experiment: Anticancer activity against human SNU1 cells assessed as cell growth inhibition measured after 3 days by CCK-8 assay; assay type: functional; settings: SNU1, 72 h, time 3 day
AGS = experiment: Anticancer activity against human AGS cells assessed as cell growth inhibition measured after 3 days by CCK-8 assay; assay type: functional; settings: 72 h, time 3 day
A549 = experiment: Anticancer activity against human A549 cells assessed as cell growth inhibition measured after 72 hrs by MTT assay; assay type: functional, cell-based; settings: A549, 72 h
NCI-H460 [6] = experiment: Anticancer activity against human NCI-H460 cells assessed as cell growth inhibition measured after 72 hrs by MTT assay; assay type: functional, cell-based; settings: NCI-H460, 72 h
HT-29 = experiment: Anticancer activity against human HT-29 cells assessed as cell growth inhibition measured after 72 hrs by MTT assay; assay type: functional, cell-based; settings: HT-29, 72 h
[7] = Anticancer activity against human U-87 MG cells assessed as cell growth inhibition measured after 72 hrs by MTT assay; assay type: functional, cell-based, U-87MG ATCC
Rattus norvegicus [8] = experiment: Antiinflammatory activity in carrageenan induced rat paw oedema model assessed as inhibition of paw oedema, ip pretreated with compound for 30 mins followed by carrageenan injection measured after 3 hrs relative to control; assay type: functional; set-up: scale not given: the % may be the effect or the level left; settings: time 3.5 hrs
SMMC-7721 = experiment: Anticancer activity against human SMMC-7721 cells assessed as cell growth inhibition measured after 72 hrs by MTT assay; assay type: functional, cell-based; settings: SMMC-7721, 72 h
Sprivivirus cyprinus = experiment: Antiviral activity against Carp sprivivirus infected Fathead minnow EPC cells assessed as assessed as suppression of virus-induced cytopathic effect incubated for 48 hrs by CCK-8 assay; assay type: functional, organism-based
[9] = Anticancer activity against mouse L1210/0 cells assessed as cell growth inhibition measured after 3 days by CCK-8 assay; assay type: functional, cell-based; settings: L1210/0, 72 h
MOLT-4 = experiment: Anticancer activity against human Molt4/C8 cells assessed as cell growth inhibition measured after 3 days by CCK-8 assay; assay type: functional, cell-based; settings: MOLT-4, 72 h
CCRF-CEM = experiment: Anticancer activity against human CEM/0 cells assessed as cell growth inhibition measured after 3 days by CCK-8 assay; assay type: functional, cell-based; settings: 72 h
HeLa = experiment: Anticancer activity against human HeLa cells assessed as cell growth inhibition by SRB method; assay type: functional

For `CCN(CC)c1ccc2cc(-c3nc4ccccc4n3C)c(=O)oc2c1`, the GI50 [1] was 100 nM, the GI50 (PANC-1) was 100 nM and the GI50 (SK-OV-3) was 70 nM. It also gave a GI50 (K562) of 70 nM.
`O=c1oc2ccc(Cl)cc2cc1-c1nc2ccccc2[nH]1` gave an Activity (Rattus norvegicus [2]) of 46.75%.
`O=c1oc2ccccc2cc1-c1nc2ccccc2n1C(=S)Nc1ccccc1` showed a GI50 (MCF7) of 80 nM, a GI50 (NCI-H460 [3]) of 50 nM and a GI50 (SF-268) of 60 nM. For the same compound, the GI50 at 48 h [4] was 28000 nM.
With `O=c1oc2ccc(Br)cc2cc1-c1nc2ccccc2[nH]1` the Activity (Rattus norvegicus [2]) was 45.45%.
For `O=c1oc2ccccc2cc1CSc1nc2ccccc2[nH]1`, the Activity (Salmonella typhi) was 100% and the Activity (Shigella dysenteriae) was 100%.
For `Cc1c(/C=N/Nc2nc3ccccc3[nH]2)c(=O)oc2cc(O)ccc12`, the zone of inhibition at 1000 µg/mL (Staphylococcus aureus) was 13 mm, the zone of inhibition at 1000 µg/mL (Bacillus subtilis) was 13 mm and the zone of inhibition at 1000 µg/mL (Pseudomonas aeruginosa) was 13 mm. The zone of inhibition at 1000 µg/mL (Escherichia coli) was 13 mm, the zone of inhibition at 1000 µg/mL (Aspergillus niger) was 13 mm and the zone of inhibition at 1000 µg/mL (Aspergillus flavus) was 13 mm. It also gave a zone of inhibition at 1000 µg/mL (Aspergillus terreus) of 13 mm and an Activity (Rattus norvegicus [5]) of 37%.
Work on `Cc1ccc2nc(SCc3cc4ccccc4oc3=O)[nH]c2c1` yielded an Activity (Salmonella typhi) of 100% and an Activity (Shigella dysenteriae) of 100%.
For `CC(=O)OC[C@H]1O[C@@H](n2c(SCc3cc4cc(Br)ccc4oc3=O)nc3ccccc32)[C@H](OC(C)=O)[C@@H](OC(C)=O)[C@@H]1OC(C)=O`, the EC50 (Hepatitis C virus) was 4100 nM.
Work on `O=c1cc(Cn2c[n+](CCCCn3c[n+](Cc4cc(=O)oc5cc(O)ccc45)c4ccccc43)c3ccccc32)c2ccc(O)cc2o1` yielded an IC50 (Carbonic anhydrase 1) of 81000 nM and an IC50 (Carbonic anhydrase 2) of 94000 nM.
Compound `CCN(CC)c1ccc2cc(-c3nc4cc(C)ccc4n3C)c(=O)oc2c1` has a GI50 [1] of 590 nM, a GI50 (K562) of 670 nM and a GI50 (SNU1) of 120 nM. It also gave a GI50 (AGS) of 780 nM.
Compound `O=C(CCl)n1c(-c2cc3ccccc3oc2=O)nc2ccccc21` has an IC50 (A549) of 290 nM, an IC50 (NCI-H460 [6]) of 590 nM and an IC50 (HT-29) of 570 nM. For the same compound, the IC50 [7] was 340 nM.
`O=c1cc(Cc2nc3ccccc3[nH]2)c2ccccc2o1` gave an Activity (Rattus norvegicus [8]) of 45%.
With `O=c1cc(Cn2c[n+](CCCCCn3c[n+](Cc4cc(=O)oc5cc(O)ccc45)c4ccccc43)c3ccccc32)c2ccc(O)cc2o1` the IC50 (Carbonic anhydrase 1) was 99000 nM and the IC50 (Carbonic anhydrase 2) was 89000 nM.
In the case of `O=C(/C(Cl)=N/Nc1ccc(Cl)cc1Cl)n1c(-c2cc3ccccc3oc2=O)nc2ccccc21`, the IC50 (A549) is reported as 250 nM, the IC50 (NCI-H460 [6]) is reported as 360 nM and the IC50 [7] is reported as 290 nM. For the same compound, the IC50 (SMMC-7721) was 220 nM.
`O=c1cc(C[n+]2cn(Cc3ccc4ccccc4c3)c3ccccc32)c2ccc(O)c(O)c2o1` showed an IC50 (Carbonic anhydrase 1) of 4990 nM and an IC50 (Carbonic anhydrase 2) of 6010 nM.
Work on `O=c1ccc2cc(OCCCn3cnc4ccccc43)ccc2o1` yielded an IC50 (Sprivivirus cyprinus) of 2.2 µg/mL (≈ 6.87 µM).
`O=c1oc2ccc(Cl)cc2cc1-c1nc2cc(Cl)ccc2[nH]1` gave an IC50 [9] of 0.67 µg/mL (≈ 2.02 µM), an IC50 (MOLT-4) of 0.44 µg/mL (≈ 1.33 µM) and an IC50 (CCRF-CEM) of 0.42 µg/mL (≈ 1.27 µM).
With `Cc1ccc(S(=O)(=O)n2c(-c3cc(=O)oc4ccc(C)cc34)nc3ccccc32)cc1` the GI50 (HeLa) was 35 µg/mL (≈ 81.3 µM).
Work on `Cc1ccc2c(Cc3nc4ccccc4[nH]3)cc(=O)oc2c1` yielded an Activity (Rattus norvegicus [8]) of 45%.
Compound `O=c1oc2ccccc2c2c(O)cn3c4ccccc4nc3c12` has a GI50 (MCF7) of 24100 nM, a GI50 (NCI-H460 [3]) of 30800 nM and a GI50 (SF-268) of 26100 nM. The GI50 at 48 h [4] was 25200 nM.
With `Cc1cn2c3ccccc3nc2c2c(=O)oc3ccccc3c12` the GI50 (MCF7) was 26600 nM, the GI50 (NCI-H460 [3]) was 29300 nM and the GI50 (SF-268) was 18400 nM. It also gave a GI50 at 48 h [4] of 68200 nM.
